Measurements: the NIST ThermoML archive (doi:10.1021/je9005618)
± gives the expanded uncertainty stated by the source.

Test: refractive index (Na D-line) (dimensionless); xn = mol fraction of the nth substance listed
Conditions: 101 kPa, Liquid

CCn1cc[n+](C)c1.O=S(=O)([O-])C(F)(F)F [1-ethyl-3-methylimidazolium trifluoromethanesulfonate] + COC(C)=O
refractive index
Conditions	288.15 K	298.15 K	308.15 K	318.15 K
x1 = 0.05083	1.37625 ± 0.0013	1.37116 ± 0.0013	1.3671 ± 0.0013	1.36334 ± 0.0013
x1 = 0.09991	1.38561 ± 0.0013	1.38057 ± 0.0013	1.37793 ± 0.0013	1.37521 ± 0.0013
x1 = 0.1515	1.39328 ± 0.0013	1.38873 ± 0.0013	1.38548 ± 0.0013	1.38291 ± 0.0013
x1 = 0.1998	1.39836 ± 0.0013	1.39419 ± 0.0013	1.39098 ± 0.0013	1.38871 ± 0.0013
x1 = 0.2997	1.40796 ± 0.0013	1.40429 ± 0.0013	1.40087 ± 0.0013	1.39857 ± 0.0013
x1 = 0.4003	1.41462 ± 0.0013	1.4112 ± 0.0013	1.40804 ± 0.0013	1.40487 ± 0.0013
x1 = 0.4958	1.42026 ± 0.0013	1.41695 ± 0.0013	1.41367 ± 0.0013	1.41049 ± 0.0013
x1 = 0.595	1.42444 ± 0.0013	1.42123 ± 0.0013	1.41831 ± 0.0013	1.41533 ± 0.0013
x1 = 0.6962	1.42797 ± 0.0013	1.42488 ± 0.0013	1.42201 ± 0.0013	1.41907 ± 0.0013
x1 = 0.7954	1.43089 ± 0.0013	1.42794 ± 0.0013	1.4251 ± 0.0013	1.42226 ± 0.0013
x1 = 0.8385	1.43234 ± 0.0013	1.42944 ± 0.0013	1.42649 ± 0.0013	1.42364 ± 0.0013
x1 = 0.8977	1.43347 ± 0.0013	1.43061 ± 0.0013	1.42771 ± 0.0013	1.42488 ± 0.0013
x1 = 0.9466	1.43451 ± 0.0013	1.4317 ± 0.0013	1.4289 ± 0.0013	1.42618 ± 0.0013

CCn1cc[n+](C)c1.O=S(=O)([O-])C(F)(F)F [1-ethyl-3-methylimidazolium trifluoromethanesulfonate] + CC(C)=O
refractive index
Conditions	288.15 K	298.15 K	308.15 K	318.15 K
x1 = 0.04957	1.37495 ± 0.0013	1.36994 ± 0.0013	1.36575 ± 0.0013	1.36218 ± 0.0013
x1 = 0.1005	1.38499 ± 0.0013	1.38033 ± 0.0013	1.37615 ± 0.0013	1.37308 ± 0.0013
x1 = 0.1503	1.39293 ± 0.0013	1.38854 ± 0.0013	1.38475 ± 0.0013	1.38186 ± 0.0013
x1 = 0.2007	1.39936 ± 0.0013	1.39527 ± 0.0013	1.39155 ± 0.0013	1.38862 ± 0.0013
x1 = 0.2995	1.40865 ± 0.0013	1.40492 ± 0.0013	1.40133 ± 0.0013	1.39777 ± 0.0013
x1 = 0.3973	1.41585 ± 0.0013	1.41237 ± 0.0013	1.409 ± 0.0013	1.40574 ± 0.0013
x1 = 0.5018	1.42117 ± 0.0013	1.41787 ± 0.0013	1.41464 ± 0.0013	1.41148 ± 0.0013
x1 = 0.5996	1.42541 ± 0.0013	1.42225 ± 0.0013	1.41908 ± 0.0013	1.41604 ± 0.0013
x1 = 0.6973	1.42854 ± 0.0013	1.42549 ± 0.0013	1.4225 ± 0.0013	1.41953 ± 0.0013
x1 = 0.7733	1.43087 ± 0.0013	1.42786 ± 0.0013	1.4249 ± 0.0013	1.42199 ± 0.0013
x1 = 0.8452	1.43253 ± 0.0013	1.42963 ± 0.0013	1.42676 ± 0.0013	1.42392 ± 0.0013
x1 = 0.8988	1.43368 ± 0.0013	1.43085 ± 0.0013	1.42803 ± 0.0013	1.42518 ± 0.0013
x1 = 0.9559	1.43487 ± 0.0013	1.43207 ± 0.0013	1.42925 ± 0.0013	1.4265 ± 0.0013

CCn1cc[n+](C)c1.O=S(=O)([O-])C(F)(F)F [1-ethyl-3-methylimidazolium trifluoromethanesulfonate] + CCOC(C)=O
refractive index
Conditions	288.15 K	298.15 K	308.15 K	318.15 K	328.15 K
x1 = 0.04887	1.38327 ± 0.0013	1.37802 ± 0.0013	1.37297 ± 0.0013	1.3691 ± 0.0013	1.3631 ± 0.0013
x1 = 0.1503	1.39622 ± 0.0013	1.39151 ± 0.0013	1.3881 ± 0.0013	1.38476 ± 0.0013	1.38129 ± 0.0013
x1 = 0.2004	1.40093 ± 0.0013	1.39666 ± 0.0013	1.3944 ± 0.0013	1.3917 ± 0.0013	1.38772 ± 0.0013
x1 = 0.2998	1.40907 ± 0.0013	1.40499 ± 0.0013	1.40234 ± 0.0013	1.39937 ± 0.0013	1.39558 ± 0.0013
x1 = 0.399	1.41507 ± 0.0013	1.41144 ± 0.0013	1.40854 ± 0.0013	1.40604 ± 0.0013	1.4031 ± 0.0013
x1 = 0.5006	1.42038 ± 0.0013	1.41682 ± 0.0013	1.41415 ± 0.0013	1.41137 ± 0.0013	1.40906 ± 0.0013
x1 = 0.5977	1.42469 ± 0.0013	1.42133 ± 0.0013	1.4186 ± 0.0013	1.41549 ± 0.0013	1.41251 ± 0.0013
x1 = 0.6974	1.42874 ± 0.0013	1.42566 ± 0.0013	1.42254 ± 0.0013	1.41963 ± 0.0013	1.41671 ± 0.0013
x1 = 0.7962	1.43118 ± 0.0013	1.42823 ± 0.0013	1.42528 ± 0.0013	1.42239 ± 0.0013	1.41954 ± 0.0013
x1 = 0.8474	1.43242 ± 0.0013	1.4295 ± 0.0013	1.42662 ± 0.0013	1.42376 ± 0.0013	1.42094 ± 0.0013
x1 = 0.9011	1.43367 ± 0.0013	1.43075 ± 0.0013	1.42792 ± 0.0013	1.42471 ± 0.0013	1.42195 ± 0.0013
x1 = 0.9491	1.43467 ± 0.0013	1.43182 ± 0.0013	1.42903 ± 0.0013	1.42624 ± 0.0013	1.42352 ± 0.0013
